“Also recorded” adds a separate entry of the source. Structures can show the parent of a compound that is named as a salt. Where two headings read alike, the source gives them in different places. Bounds are passed on as bounds.

The subject of one assay is tumor cell lines. The assay can be described thus: Tumor clonogenic assay, overall. It counts as cell-based. The source says: For the IN VITRO test, we chose a tumor clonogenic assay which measures the ability of tumoral cells to form colonies (multicellular growth units) as a result of cell division in semisolid agar support (2,3). A more elaborate version of this fundamental assay, the soft agar colony formation disk diffusion assay was used. This assay defines the relative activity of one particular drug versus a tumoral cell line type. The effect of the test drug against tumoral cells could be measured by its inhibitory capacity against colony formation after the delivery of the compound, in different concentrations on an filter disk(4).
A modified technique of this assay was used in order to investigate the antiproliferative activity of candidate compounds. Tumoral cells from solid tumors and ascitic lines were plated separately in a two layer agar matrix. Cell lines to be tested were suspended in an upper layer of 0.4% Noble agar (Difco#00142-01) in RPMI-1066 (Gibco#3201875) at a yield varying between 10^4 to 2×10^5 cells per 60 mm Petri dish. Plating efficiency was determined for each line in order to achieve an optimal number of colonies per dish. Plates were examined before drug administration to confirm a uniform dispersion of single cells. The bottom layer consisted of 0.8% Noble agar, 0.8% Tryptic Soy Broth (difco#0037001)in CMRL-1066/Fischer's. The bottom layers were used within 2 and 9 days of preparation. Plated dishes (bottom layer of agar, upper layer of cells and administered drug were incubated in humidified atmosphere at 37° C., 5% CO2 for 10-20 days depending upon the time necessary to observe adequate colonies (defined as a cell aggregate of more than 50 cells) both control and drug inhibited. Drugs were administered on a paper filter disk (Whatman No. 1) of 6.5 mm diameter placed on the upper layer at 1/3 distance from the edge of the dish. The anti-clonogenic activity of the compounds was measured as the zone of inhibition from the disk edge to the most proximal colonies. This zone of inhibition was checked on an inverted microscope (40×) and was measured with a micrometer mounted in the eyepiece. The ocular micrometer was calibrated with a stage micrometer set for a particular combination of ocular and objective lenses.
200 units of activity are equivalent to 6.5 mm distance from the disk edge to the first colonies (5). […] We made a modification of the initial technique by not plating a solid tumor and a leukemia simultaneously in the same Petri dish. Anti-clonogenic tests performed on leukemia cell line have helped in the discovery of the majority of current clinically used cytostatic drugs. Our tests on solid tumor lines (animal or human) may help define active compounds with solid tumor specificity. This specific activity would be indicated by a higher level of cloning inhibition in solid tumors versus leukemias (6).

The next assay has as its system BE-1. The assay can be described thus: Soft agar colony formation disk diffusion assay. It is filed as cell-based, human. The gist of the method: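 Anti-clonogenic effect assessed by disk diffusion in two-layer Noble agar, cells plated separately per line at an optimised density. After 10–20 days incubation, the inhibition zone around the compound disk was measured microscopically.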
(In general: Agar diffusion results depend on both activity and mobility in agar.)

A further assay concerns Colon. The experiment in a line: NCI assay, average per cancer type. Conditions: Homo sapiens; for CC50: 48 h, read-out: Average LOG10 LC50; for GI50: read-out: Average LOG10 GI50.

With “3-(2-acetoxy-1-propeneketal)aceto-6-acetoxy-1-hydroxy-1,2,3,4-tetrahydro-(2-oxygen)naphtacene-5,12-dione and 3-(2-acetoxy-1-propeneketal)-aceto-11-acetoxy-1-hydroxy-1,2,3,4-tetrahydro-(2-oxygen)naphtacene-5,12-dione [BCH-710]”, the “activity and specificity in words” value in the assay with tumor cell lines was “most active”; in the assay with tumor cell lines (listed as BCH 710) it was “specificity for the MATB/ADR rat breast ADR resistant adenocarcinoma and mouse ovarian reticulum cell sarcoma”.

On to “3-(2-hydroxy)aceto-6-hydroxy-1,2,3,4-tetrahydro-(2-oxygen)naphthacene-5,12-dione and 3-(2-hydroxy)aceto-11-hydroxy-1,2,3,4-tetrahydro-(2-oxygen)naphthacene-5,12-dione [BCH-694]”, for which the results for the zone of inhibition with BE-1 (10 μg/DISK) and in the assay on BE-1 (100 μg/DISK) were 54.9 ± 8.6 Zone Units and 189.0 ± 8.4 Zone Units, respectively.

For “3-carbomethoxy-6-hydroxy-1,2,3,4-tetrahydro-(2-sulfur)naphthacene-5,12-dione and 3-carbomethoxy-11-hydroxy-1,2,3,4-tetrahydro(2-sulfur)naphthacene-5,12-dione [BCH-693]”, the zone of inhibition with BE-1 (10 μg/DISK) is 0 Zone Units; in the assay with BE-1 (100 μg/DISK) it was 76.2 ± 21.5 Zone Units.

The GI50 is the concentration that inhibits growth by half. For the compound `CCOC(=O)[C@@H]1CC2=C(C(=O)c3c(c(O)c4ccccc4c3OC(C)=O)C2=O)[C@@H](O)O1` (mixture of isomers) [BCH-658, (1S,3S) and (1R,3R) Ethyl[11-acetoxy-1,6-dihydroxy-5,12-dioxo-3,4,5,12-tetrahydroanthraceno (2,3-c)pyran-3-yl]formate], in the assay with BE-1 (10 μg/DISK), the zone of inhibition is on record as 0 Zone Units. For the same compound, in the assay on BE-1 (100 μg/DISK), the zone of inhibition amounted to 0 Zone Units. For the same compound, in the assay with Colon, the CC50 is more than 100 µM and the GI50 is 61.7 µM.

As for `CCOC(=O)[C@@H]1CC2=C(C(=O)c3cc4ccccc4c(OC(C)=O)c3C2=O)[C@@H](O)O1` (mixture of isomers) [BCH-660, (1S,3S) and (1R,3R)-Ethyl-[6-acetoxy-1-hydroxy-5,12-dioxo-3,4,5,12-tetrahydroanthraceno (2,3-c)pyran-3-yl]formate], the zone of inhibition is 45.7 ± 21.5 Zone Units in the assay with BE-1 (10 μg/DISK) and 125.0 ± 12.7 Zone Units in the assay with BE-1 (100 μg/DISK). Further, the CC50 with Colon is more than 100 µM. For the same compound, the GI50 in the assay with Colon was 0.617 µM.

On to `COC(=O)[C@@H]1CC2=C(C(=O)c3c(c(OC)c4ccccc4c3O)C2=O)[C@@H](O[C@H]2C[C@H](NC(=O)C(F)(F)F)[C@H](O)[C@H](C)O2)O1` (mixture of isomers) [BCH-674, (1'S,1S,3R) and 1'S,1R,3S) Methyl(11-hydroxy-6-methoxy-1-[2',3',6'-trideoxy-3-trifluoroacetamido-4'-hydroxy-L-lyxohexopyranose]-5,12-dioxo-3,4,5,12-tetrahydroanthra-ceno[2,3-c]pyran-3-yl) formate], for which, in the assay on Colon, the CC50 is 97.7 µM and the GI50 is 13.5 µM.

With `COC(=O)[C@H]1CC2=C(C(=O)c3c(c(OC)c4ccccc4c3O)C2=O)[C@H](O[C@H]2C[C@H](NC(=O)C(F)(F)F)[C@H](O)[C@H](C)O2)O1` (mixture of isomers) [BCH-675, (1'S,1S,3R) and 1'S,1R,3S) Methyl(11-hydroxy-6-methoxy-1-[2',3',6'-trideoxy-3-trifluoroacetamido-4'-hydroxy-L-lyxohexopyranose]-5,12-dioxo-3,4,5,12-tetrahydroanthra-ceno[2,3-c]pyran-3-yl) formate], the zone of inhibition worked out at 0 Zone Units in the assay with BE-1 (10 μg/DISK) and 46.7 ± 5.3 Zone Units in the assay with BE-1 (100 μg/DISK). For the same compound, the CC50 with Colon is 85.1 µM. Moreover, the GI50 with Colon is 8.71 µM.

On to `COC(=O)[C@H]1CC2=C(C(=O)c3c(cc4ccccc4c3O)C2=O)[C@H](O[C@H]2C[C@H](NC(=O)C(F)(F)F)[C@H](O)[C@H](C)O2)O1` (mixture of isomers) [BCH-692, (1'S,1S,3R) and (1'S,1R,3S) Methyl[11-hydroxy-1-(2',3',6'-trideoxy-3'-trifluoroacetamido-4'-hydroxy-L-lyxohexopyranose)-5,12-dioxo-3,4,5,12-tetrahydro-anthraceno[2,3-c]pyran-3-yl]formate], for which the zone of inhibition in the assay on BE-1 (10 μg/DISK) came out at 0 Zone Units; in the assay with BE-1 (100 μg/DISK) it was 100.0 ± 50.0 Zone Units. Further, the “activity and specificity in words” value in the assay with tumor cell lines is “most active; also recorded: Good broad spectrum activity”.

As to `CCOC(=O)C1CC2=C(CO1)C(=O)c1c(cc3ccccc3c1O)C2=O` (stereo not drawn) [BCH-651, Ethyl(6 and 11 hydroxy-5,12-dioxo-3,4,5,12-tetrahydro-anthraceno[2,3-c]pyran-3-yl)]formate], in the assay on BE-1 (10 μg/DISK), the zone of inhibition was determined as 0 Zone Units. The zone of inhibition in the assay on BE-1 (100 μg/DISK) stood at 106.7 ± 21.5 Zone Units. In the assay on Colon, the CC50 was 41.7 µM and the GI50 was 3.39 µM.

Take `CCOC(=O)C1CC2=C(CO1)C(=O)c1cc3ccccc3c(O)c1C2=O` (stereo not drawn) [BCH-653, Ethyl(6 and 11 hydroxy-5,12-dioxo-3,4,5,12-tetrahydro-anthraceno[2,3-c]pyran-3-yl)]formate]: in the assay on BE-1 (100 μg/DISK), the zone of inhibition came out at 76.2 ± 21.5 Zone Units. In addition, in the assay on Colon, the CC50 was more than 100 µM and the GI50 is 35.5 µM.

For `CCOC(=O)C1CC2=C(CO1)C(=O)c1c(c(O)c3ccccc3c1OC(C)=O)C2=O` (stereo not drawn) [BCH-654, Ethyl[11-acetoxy-6-hydroxy-5,12-dioxo-3,4,5,12-tetrahydroanthraceno(2,3-c)pyran-3-yl]formate], the figures for the zone of inhibition with BE-1 (10 μg/DISK) and with BE-1 (100 μg/DISK) were 24.4 ± 8.6 Zone Units and 153.0 ± 1.4 Zone Units, respectively.

Take `CCOC(=O)[C@@H]1CC2=C(C(=O)c3cc4ccccc4c(O)c3C2=O)[C@@H](O[C@H]2C[C@H](NC(=O)C(F)(F)F)[C@H](O)[C@H](C)O2)O1` [BCH-681, (1'S,1R,3S)Ethyl[6-hydroxy-5,12-dioxo-1-(3'-trifuloroacetamido-1-daunosaminyl)-3,4,5,12-tetrahydroanthraceno(2,3-C)pyran-3-yl]formate]: in the assay on Colon, the CC50 was 7.24 µM and the GI50 was 1.41 µM.

`CCOC(=O)[C@H]1CC2=C(C(=O)c3cc4ccccc4c(O)c3C2=O)[C@H](O[C@H]2C[C@H](NC(=O)C(F)(F)F)[C@H](O)[C@H](C)O2)O1` [BCH-684, (1'S,1S,3R)Ethyl[6-hydroxy-5,12-dioxo-1-(3'-trifluoroacetamido-1-daunosaminyl)-3,4,5,12-tetrahydroanthraceno(2,3-C)pyran-3-yl]formate]: the “activity and specificity in words” value with tumor cell lines is given as “most active; also recorded: Good broad spectrum activity”.

With `COC(=O)[C@@H]1CC2=C(C(=O)c3c(cc4ccccc4c3O)C2=O)[C@@H](O[C@H]2C[C@H](NC(=O)C(F)(F)F)[C@H](O)[C@H](C)O2)O1` [BCH-691, (1'S,1R,3S)-Methyl-{11-hydroxy-1-(2',3',6'-trideoxy-3'-trifluoroacetamido-4'-hydroxy-L-lyxoheoxpyranose)-5,12-dioxo-3,4,5,12-tetrahydroanthraceno[2,3-c]pyran-3-yl}formate], the zone of inhibition with BE-1 (10 μg/DISK) worked out at 55.0 ± 10.0 Zone Units; in the assay on BE-1 (100 μg/DISK), 155.5 ± 50.3 Zone Units. Besides, the “activity and specificity in words” value with tumor cell lines is on record as “most active; also recorded: Good broad spectrum activity”.

Regarding `CC(=O)Oc1c2c(c(O)c3ccccc13)C(=O)C1=C(C2=O)C(O)OC(C(C)=O)C1` (stereo not drawn) [BCH-704, Methyl(11-acetoxy-1,6-dihydroxy-5,12-dioxo-3,4,5,12-tetrahydroanthraceno[2,3-c]pyran-3-yl)ketone], the “activity and specificity in words” value in the assay with tumor cell lines is reported as “most active; also recorded: Specificity for breast cancer”.

Values taken from patent US5593970A, “Heterocyclic anthracycline analogs” (priority 1994, dated 1997).
